29 compounds from US20050124606A1, “Novel benzothiazine and benzothiadiazine derivatives method for preparing same and pharmaceutical compositions containing same” (priority 2001, published 2005) can be followed below.

Test system in the first data set: not given
Assay: not given
Settings: not given
Compound `N#Cc1ccc(Oc2ccc3c(c2)S(=O)(=O)NC2CCCN32)cc1` (centres unmarked) [Example 5, 4-[(5,5-Dioxido-2,3,3a,4-tetrahydro-1H-pyrrolo[2,1-c][1,2,4]benzothiadiazin-7-yl)oxy]benzonitrile] displayed a melting point of 242 to 245 °C. Turning to `COc1ccc(Oc2ccc3c(c2)S(=O)(=O)NC2CCCN32)cc1` (centres unmarked) [Example 9, 7-(4-Methoxyphenoxy)-2,3,3a,4-tetrahydro-1H-pyrrolo[2,1-c][1,2,4]-benzothiadiazine 5,5-dioxide], the melting point fell in the range of 188 to 191 °C.

`Cc1cccc(Oc2ccc3c(c2)S(=O)(=O)NC2CCCN32)c1` (centres unmarked) [Example 8, 7-(3-Methylphenoxy)-2,3,3a,4-tetrahydro-1H-pyrrolo[2,1-c][1,2,4]-benzothiadiazine 5,5-dioxide] had a melting point of 190 to 195 °C. As to `O=S1(=O)NC2CCCN2c2ccc(Oc3cccc(F)c3)cc21` (centres unmarked) [Example 37, 7-(3-Fluorophenoxy)-2,3,3a,4-tetrahydro-1H-pyrrolo [2,1-c][1,2,4]-benzothiadiazine 5,5-dioxide], the melting point turned out to be 201 °C. Still for that read-out and setting: next, `O=S1(=O)NC2CCCN2c2ccc(Oc3cc(C(F)(F)F)cc(C(F)(F)F)c3)cc21` (centres unmarked) [Example 16, 7-[3,5-Di(trifluoromethyl)phenoxy]-2,3,3a,4-tetrahydro-1H-pyrrolo[2,1-c][1,2,4]benzothiadiazine 5,5-dioxide]: 201 to 203 °C; `O=S1(=O)NC2CCCN2c2ccc(Oc3cccc(OC(F)(F)F)c3)cc21` (centres unmarked) [Example 19, 7-(3-Trifluoromethoxyphenoxy)-2,3,3a,4-tetrahydro-1H-pyrrolo-[2,1-c][1,2,4]benzothiadiazine 5,5-dioxide]: 175 °C. As for `Cc1ccc(Oc2ccc3c(c2)S(=O)(=O)NC2CCCN32)cc1` (centres unmarked) [Example 7, 7-(4-Methylphenoxy)-2,3,3a,4-tetrahydro-1H-pyrrolo[2,1-c][1,2,4]-benzothiadiazine 5,5-dioxide], the melting point lay in the range of 222 to 226 °C. Same read-out and setting: next, `CCc1cccc(Oc2ccc3c(c2)S(=O)(=O)NC2CCCN32)c1` (centres unmarked) [Example 35, 7-(3-Ethylphenoxy)-2,3,3a,4-tetrahydro-1H-pyrrolo [2,1-c][1,2,4]-benzothiadiazine 5,5-dioxide]: 143 to 144 °C.

`CSc1cccc(Oc2ccc3c(c2)S(=O)(=O)NC2CCCN32)c1` (centres unmarked) [Example 34, 7-(3-Methylsulphanylphenoxy)-2,3,3a,4-tetrahydro-1H-pyrrolo-[2,1-c][1,2,4]benzothiadiazine 5,5-dioxide] registered a melting point of 160 °C. For `O=S1(=O)NC2CCCN2c2ccc(Oc3cccc(Cl)c3)cc21` (centres unmarked) [Example 17, 7-(3-Chlorophenoxy)-2,3,3a,4-tetrahydro-1H-pyrrolo[2,1-c][1,2,4]-benzothiadiazine 5,5-dioxide], the melting point was 194 to 198 °C.

Compound `O=[N+]([O-])c1cccc(Oc2ccc3c(c2)S(=O)(=O)NC2CCCN32)c1` (centres unmarked) [Example 15, 7-(3-Nitrophenoxy)-2,3,3a,4-tetrahydro-1H-pyrrolo[2,1-c][1,2,4]-benzothiadiazine 5,5-dioxide] registered a melting point of 201 to 204 °C. With `N#Cc1cccc(Oc2ccc3c(c2)S(=O)(=O)NC2CCCN32)c1` (centres unmarked) [Example 6, 3-[(5,5-Dioxido-2,3,3a,4-tetrahydro-1H-pyrrolo [2,1-c][1,2,4]benzothiadiazin-7-yl)oxy]benzonitrile], the melting point lay within 227 to 230 °C. As to `O=S1(=O)NC2CCCN2c2ccc(Oc3cccc4ccccc34)cc21` (centres unmarked) [Example 20, 7-(1-Naphthyloxy)-2,3,3a,4-tetrahydro-1H-pyrrolo[2,1-c][1,2,4]-benzothiadiazine 5,5-dioxide], the melting point was 227 to 229 °C. Still for that read-out and setting: next, `CCN1CNS(=O)(=O)c2cc(Oc3ccccc3)ccc21` [Example 29, 4-Ethyl-7-phenoxy-3,4-dihydro-2H-1,2,4-benzothiadiazine 1,1-dioxide]: 179 to 181 °C; `CCN1CNS(=O)(=O)c2cc(Oc3cccc(C(C)=O)c3)ccc21` [Example 59, 1-{3-[(4-Ethyl-1,1-dioxido-3,4-dihydro-2H-1,2,4-benzothiadiazin-7-yl)oxy]phenyl}ethanone]: 164 to 166 °C.

Compound `CCN1CNS(=O)(=O)c2cc(Oc3cccc(OC)c3)ccc21` [Example 32, 4-Ethyl-7-(3-methoxyphenoxy)-3,4-dihydro-2H-1,2,4-benzothiadiazine 1,1-dioxide] gave a melting point of 91 to 93 °C. Same read-out and setting: then `CCCN1CNS(=O)(=O)c2cc(Oc3ccccc3)ccc21` [Example 30, 4-Propyl-7-phenoxy-3,4-dihydro-2H-1,2,4-benzothiadiazine 1,1-dioxide], with 143 to 145 °C.

`CCOc1cccc(Oc2ccc3c(c2)S(=O)(=O)NC2CCCN32)c1` (centres unmarked) [Example 18, 7-(3-Ethoxyphenoxy)-2,3,3a,4-tetrahydro-1H-pyrrolo[2,1-c][1,2,4]-benzothiadiazine 5,5-dioxide] had a melting point of 150 °C.

As to `CCN1CNS(=O)(=O)c2cc(Oc3cccc(C#N)c3)ccc21` [Example 31, 3-[(4-Ethyl-1,1-dioxido-3,4-dihydro-2H-1,2,4-benzothiadiazin-7-yl)oxy]benzonitrile], the melting point lay in the range of 143 to 146 °C.

Regarding `O=S1(=O)NC2CCCN2c2ccc(Oc3cccc(OCc4ccccc4)c3)cc21` (centres unmarked) [Example 22, 7-(3-Benzyloxyphenoxy)-2,3,3a,4-tetrahydro-1H-pyrrolo-[2,1-c][1,2,4]benzothiadiazine 5,5-dioxide], the melting point was 179 to 182 °C. For `O=S1(=O)NC2CCCN2c2ccc(Oc3cccc(Br)c3)cc21` (centres unmarked) [Example 38, 7-(3-Bromophenoxy)-2,3,3a,4-tetrahydro-1H-pyrrolo[2,1-c][1,2,4]-benzothiadiazine 5,5-dioxide], the melting point was 193 to 195 °C. On the same count and under the same terms, next, `CCN1CNS(=O)(=O)c2cc(Oc3ccc(C)c(C)c3)ccc21` [Example 61, 7-(3,4-Dimethylphenoxy)-4-ethyl-3,4-dihydro-2H-1,2,4-benzothiadiazine 1,1-dioxide]: 109 to 111 °C. On the same count and under the same terms, then `CCN1CNS(=O)(=O)c2cc(Oc3cccc(C)c3)ccc21` [Example 57, 4-Ethyl-7-(3-methylphenoxy)-3,4-dihydro-2H-[1,2,4]benzothiadiazine 1,1-dioxide], with 72 to 75 °C. Still for that read-out and setting: next, `CC(C)c1cccc(Oc2ccc3c(c2)S(=O)(=O)NC2CCCN32)c1` (centres unmarked) [Example 36, 7-(3-Isopropylphenoxy)-2,3,3a,4-tetrahydro-1H-pyrrolo[2,1-c][1,2,4]-benzothiadiazine 5,5-dioxide]: 171 to 172 °C. For the compound `O=S1(=O)NC2CCCN2c2ccc(Oc3ccc4ccccc4c3)cc21` (centres unmarked) [Example 21, 7-(2-Naphthyloxy)-2,3,3a,4-tetrahydro-1H-pyrrolo[2,1-c][1,2,4]-benzothiadiazine 5,5-dioxide], the melting point lay within 234 to 236 °C. Same read-out and setting: next, `COc1ccccc1Oc1ccc2c(c1)S(=O)(=O)NC1CCCN21` (centres unmarked) [Example 13, 7-(2-Methoxyphenoxy)-2,3,3a,4-tetrahydro-1H-pyrrolo[2,1-c][1,2,4]-benzothiadiazine 5,5-dioxide]: 175 to 176 °C. Turning to `CCN1CNS(=O)(=O)c2cc(Oc3cccc(NS(C)(=O)=O)c3)ccc21` [Example 58, N-{3-[(4-Ethyl-1,1-dioxido-3,4-dihydro-2H-1,2,4-benzothiadiazin-7-yl)oxy]phenyl}methanesulphonamide], the melting point was in the range of 165 to 168 °C. On the same count and under the same terms, then `COC(=O)c1cccc(Oc2ccc3c(c2)S(=O)(=O)NC2CCCN32)c1` (centres unmarked) [Example 26, Methyl 3-[(5,5-dioxido-2,3,3a,4-tetrahydro-1H-pyrrolo[2,1-c][1,2,4]-benzothiadiazin-7-yl)oxy]benzoate], with 223 to 227 °C.

Another data set concerns AMPA receptors. Briefly: Excitatory fluxes induced by AMPA in Xenopus oocytes injected with rat cerebral cortex mRNA (2-electrode voltage-clamp). It counts as cell-based. The conditions noted are these: rat cortex poly-(A+) mRNA, AMPA 10 μM. As for the experimental part:
Study of the Excitatory Fluxes Induced by AMPA in Xenopus oocytes
mRNAs are prepared from cerebral cortex of male Wistar rat by the guanidinium thiocyanate/phenyl/chloroform method. The poly-(A^+) mRNAs are isolated by chromatography on oligo-dT cellulose and injected in an amount of 50 ng per oocyte. The oocytes are left to incubate for 2 to 3 days at 18° C. to allow expression of the receptors and are then stored at from 8 to 10° C.
Electrophysiological recording is carried out in a Plexiglass® chamber at from 20 to 24° C. in OR2 medium (J. Exp. Zool., 1973, 184, 321-334) by the 2-electrode “voltage-clamp” method, a 3rd electrode being placed in the bath to serve as reference.
All the compounds are administered via the incubation medium and the electric current is measured at the end of the period of administration. AMPA is used at a concentration of 10 μM. For each compound studied, the concentration that doubles (EC2X) or quintuples (EC5X) the intensity of the current induced by AMPA alone (5 to 50 nA) is determined.
In the case of `CCN1CNS(=O)(=O)c2cc(Oc3ccccc3)ccc21` [Example 29, 4-Ethyl-7-phenoxy-3,4-dihydro-2H-1,2,4-benzothiadiazine 1,1-dioxide], the “EC2X (concentration that doubles the intensity of the current induced by AMPA alone)” value turned out to be 1.4 µM and the “EC5X (concentration that quintuples the intensity of the current induced by AMPA alone)” value amounted to 4.5 µM. In the same order, the values of `O=S1(=O)NC2CCCN2c2ccc(Oc3ccccc3)cc21` (single isomer, unassigned) [Example 3, 7-Phenoxy-2,3,3a,4-tetrahydro-1H-pyrrolo[2,1-c][1,2,4]-benzothiadiazine 5,5-dioxide, α Isomer] are 0.8 µM and 3.6 µM.
